Experimental findings from patent US20200330400A1, “METHODS FOR THE TREATMENT OF CANCER USING COENZYME Q10 AND FATTY ACID METABOLISM INHIBITORS” (Berg LLC, priority 2016, published 2020) are described below.

As usually defined, the EC50 is the midpoint of the concentration-response curve.

In assay [1] the test system is MIA PaCa-2 pancreatic cancer cells. In words: Cell viability of MIA PaCa-2 pancreatic cancer cells exposed to Coenzyme Q10 alone or with fatty acid metabolism inhibitors. It is filed as cell-based. The note with it: for Sensitivity of cells to Coenzyme Q10 when treated in combination (reduced viability): co-treatment with named agent. The source says:
Cell viability was next assessed in MIA PaCa-2 pancreatic cancer cells exposed to Coenzyme Q10 alone or in combination with the fatty acid metabolism inhibitors C75, etomoxir, trimetazidine, metformin, and the Stearoyl-CoA desaturase-1 (SCD-1) inhibitor A939572. […] SCD-1 is an endoplasmic reticulum enzyme that catalyzes the formation of the monounsaturated fatty acids oleic acid and palmitoleic acid from stearoyl-CoA and palmitoyl-CoA. Oleic acid and palmitoleic acid are major components of membrane phospholipids, cholesterol esters and alkyl-diacylglycerol. Thus SCD-1 is a key enzyme in fatty acid metabolism. Inhibition of SCD-1 results in depletion of mono-unsaturated fatty acids and reduction of lipid storage.

Assay [2] deals with SKBr-3 breast cancer cells. The experiment in a line: Cell viability of SKBr-3 breast cancer cells exposed to Coenzyme Q10 alone or with fatty acid metabolism inhibitors. It is filed as cell-based. The note with it: for Sensitivity of cells to Coenzyme Q10 when treated in combination (shift of Coenzyme Q10 dose-response curve): SkBr-3, co-treatment with named agent. On the procedure:
(§1) Cell viability was assessed in MDA-MB231 and SkBr-3 breast cancer cells exposed to Coenzyme Q10 alone or in combination with the fatty acid metabolism inhibitors C75, etomoxir, and trimetazidine, as well as a more pleiotropic fatty acid metabolism modulator, metformin. […] Metformin is used clinically as an anti-diabetic agent to suppress glucose production by the liver; however, the mechanism of action remains incompletely understood.
(§2) Coenzyme Q10 was applied to the cells in a 4% Coenzyme Q10 nanosuspension formulation (as described in WO 2011/112900, the entire contents of which are expressly incorporated herein by reference) comprising a phosphatidylcholine (e.g., dimyristoylphosphatidyl choline (DMPC)).

The subject of assay [3] is MDA-MB231 breast cancer cells. The experiment in a line: Cell viability of MDA-MB231 breast cancer cells exposed to Coenzyme Q10 alone or with fatty acid metabolism inhibitors. Type of assay: cell-based, human. The note with it: for Sensitivity of cells to Coenzyme Q10 when treated in combination (shift of Coenzyme Q10 dose-response curve): MDA-MB231, co-treatment with named agent. On the procedure: as §1, §2

In assay [4] the test system is fatty acid metabolism genes FASN, CPT1, ACSL1 and DGAT1. In words: mRNA expression of fatty acid metabolism genes in MDA-MB231 cells treated with Coenzyme Q10. The note with it: Coenzyme Q10 alone. Type of assay: cell-based, human. The source says:
FASN catalyzes the synthesis of the fatty acid palmitate (C16:0, a long-chain saturated fatty acid) from acetyl-CoA and malonyl-CoA, in the presence of NADPH. CPT-1 is a mitochondrial enzyme responsible for the formation of acyl carnitines by catalyzing the transfer of the acyl group of a long-chain fatty acyl-CoA from coenzyme A to l-carnitine. CPT-1 mediated formation of acyl carnitine allows for subsequent movement of the acyl carnitine from the cytosol into the intermembrane space of mitochondria. ACSL1 activates the degradation of complex fatty acids. Specifically, this enzyme catalyzes the formation of fatty acyl-CoA by a two-step process proceeding through an adenylated intermediate. DGAT1 catalyzes the formation of triglycerides from diacylglycerol and Acyl-CoA. The reaction catalyzed by DGAT is considered the terminal and only committed step in triglyceride synthesis and to be essential for the formation of adipose tissue.

The test system of assay [5] is MDA-MB231 breast cancer cells. The experiment in a line: Free glycerol, DAG and TAG content in MDA-MB231 cells treated with Coenzyme Q10. As to conditions: Coenzyme Q10 treatment. It is filed as cell-based, human. The source says:
FIGS. 6B and 6C show diacylglyceride (DAG) (B), and triacylglyceride (TAG) content (C) in MDA-MB231 breast cancer cells treated with Coenzyme Q10.
To further evaluate the effect of Coenzyme Q10 on cancer cell lipid composition, structural lipidomic analysis was used to assess the metabolic fate of the lipid components of the Coenzyme Q10 formulation itself, such as DMPC. DMPC is a 14:0 lipid which is not found endogenously in human cells. Accordingly, it was possible to distinguish between DMPC-containing species based on the length of the fatty acid chains, e.g. 28:0 DAG and 42:0 TAG are not found endogenously. […] Accordingly, cancer cells treated with lipid-containing formulations may be especially sensitive to fatty acid metabolism inhibitors, due to the increased fatty acid metabolism activity resulting from storage and degradation of the lipid formulation components.

In the case of `CNC(=O)c1cccc(NC(=O)N2CCC(Oc3ccccc3Cl)CC2)c1` [A939572], the “Sensitivity of cells to Coenzyme Q10 when treated in combination (reduced viability)” value (from here on “Sensitivity of cells … (reduced viability)”) in assay [1] is “more sensitive to Coenzyme Q10”.
`C=C1C(=O)OC(CCCCCCCC)C1C(=O)O` (stereo not shown) [C75]: the “Sensitivity of cells to Coenzyme Q10 when treated in combination (shift of Coenzyme Q10 dose-response curve)” value in assay [2] and in assay [3] was “more sensitive to Coenzyme Q10” throughout. The “Sensitivity of cells … (reduced viability)” value in assay [1] is on record as “more sensitive to Coenzyme Q10”.
Take `COC1=C(OC)C(=O)C(C/C=C(\C)CC/C=C(\C)CC/C=C(\C)CC/C=C(\C)CC/C=C(\C)CC/C=C(\C)CC/C=C(\C)CC/C=C(\C)CC/C=C(\C)CCC=C(C)C)=C(C)C1=O` [Coenzyme Q10]: the EC50 in assay [2] (EC50 of Coenzyme Q10 (4% nanosuspension) alone or plus named inhibitor, inhibitor concentration not in table) came to 599 µM; in assay [1] (Coenzyme Q10 alone (A939572 experiment, FIG. 10)), 142 µM; in assay [1] (Coenzyme Q10 alone (metformin experiment, FIG. 8)), 261 µM; in assay [1] (Coenzyme Q10 alone or with Etomoxir 100 μM, C75 10 μM or Trimetazidine 250 μM (FIG. 9)), 284 µM; in assay [3] (EC50 of Coenzyme Q10 (4% nanosuspension) alone or plus named inhibitor, inhibitor concentration not in table (FIGS. 1-4: C75 5 μM, Etomoxir 50 μM, Trimetazidine 375 μM, metformin 500 μM)) it was 165 µM. Further, the “mRNA expression of FASN, CPT-1, ACSL1 and DGAT1” value in assay [4] was “dose- and time-dependent increase in mRNA expression”. Further, the “Diacylglyceride (DAG), triacylglyceride (TAG) and glycerol content” value in assay [5] was “accumulation of diacylglyceride (DAG), triacylglyceride (TAG) and the triglyceride backbone, glycerol”.
In the case of `CCOC(=O)C1(CCCCCCOc2ccc(Cl)cc2)CO1` (stereo not shown) [Etomoxir, 2-(6-(4-chlorophenoxy)-hexyl)-oxirane-2-carboxylic acid ethyl ester], the “Sensitivity of cells to Coenzyme Q10 when treated in combination (shift of Coenzyme Q10 dose-response curve)” value in assay [2] and in assay [3] was “more sensitive to Coenzyme Q10” in each case. Further, the “Sensitivity of cells … (reduced viability)” value in assay [1] is listed as “more sensitive to Coenzyme Q10”.
On to `CN(C)C(=N)N=C(N)N` [Metformin], for which the “Sensitivity of cells to Coenzyme Q10 when treated in combination (shift of Coenzyme Q10 dose-response curve)” value in assay [2] and in assay [3] was “did not alter cytotoxic responses to Coenzyme Q10” each time. Also, the Cell viability result was “lower viability than cells treated with Coenzyme Q10 alone” in assay [1] (Coenzyme Q10 and 0.5 mM metformin); “lower viability than cells treated with Coenzyme Q10 and 0.5 mM metformin” in assay [1] (Coenzyme Q10 and 1 mM or 5 mM metformin). Besides, the “Sensitivity of cells … (reduced viability)” value in assay [1] is listed as “more sensitive to Coenzyme Q10”.
In the case of `COc1ccc(CN2CCNCC2)c(OC)c1OC` [Trimetazidine], the “Sensitivity of cells to Coenzyme Q10 when treated in combination (shift of Coenzyme Q10 dose-response curve)” value in assay [2] and in assay [3] was “more sensitive to Coenzyme Q10” each time. For the same molecule, the “Sensitivity of cells … (reduced viability)” value in assay [1] is reported as “more sensitive to Coenzyme Q10”.
